Laboratory results from article PMC4667193 (Scientific Reports, 2015).
pEC50, pKi: −log10 of the molar value.

What was measured:
Rat M3 mAChR [1] = target: T1, Rat M3 mAChR (Rattus norvegicus, UniProt P08483); test: calcium mobilization assay in CHO cells; format: cell-based
T1 construct: host or cells: CHO (CHO-K1) cells
Procedure: (§1) CHO cells expressing rM1, rM3 and rM5 were plated at 4 × 10^4 cells per well, whereas rM2 and rM4 were plated at 6 × 10^4 cells per well, in standard growth media (as described previously under “cell culture”) in 96-well plates 24 hours before assay and were incubated overnight at 37 °C in 5% CO2. […] Cells were incubated for 45 minutes (37 °C, 5% CO2) for dye loading. Fluo4-AM dye was removed, cells were washed and replaced with 40 μL of calcium assay buffer. AEME concentration-response curves were determined in single-add experiments. […] All compounds were dissolved in dimethyl sulfoxide (DMSO) and then in calcium assay buffer to obtain a final DMSO concentration of 0.3%. […] These values were fit using GraphPad Prism version 5.0 to determine EC50 values and Schild slope and pA2 in the Schild analyses.

Rat M1 mAChR [2] = target: T2, Rat M1 mAChR (Rattus norvegicus, UniProt P08482); test: calcium mobilization assay in CHO cells; format: cell-based
T2 construct: host or cells: CHO (CHO-K1) cells
T2 sequence (P08482 1-460): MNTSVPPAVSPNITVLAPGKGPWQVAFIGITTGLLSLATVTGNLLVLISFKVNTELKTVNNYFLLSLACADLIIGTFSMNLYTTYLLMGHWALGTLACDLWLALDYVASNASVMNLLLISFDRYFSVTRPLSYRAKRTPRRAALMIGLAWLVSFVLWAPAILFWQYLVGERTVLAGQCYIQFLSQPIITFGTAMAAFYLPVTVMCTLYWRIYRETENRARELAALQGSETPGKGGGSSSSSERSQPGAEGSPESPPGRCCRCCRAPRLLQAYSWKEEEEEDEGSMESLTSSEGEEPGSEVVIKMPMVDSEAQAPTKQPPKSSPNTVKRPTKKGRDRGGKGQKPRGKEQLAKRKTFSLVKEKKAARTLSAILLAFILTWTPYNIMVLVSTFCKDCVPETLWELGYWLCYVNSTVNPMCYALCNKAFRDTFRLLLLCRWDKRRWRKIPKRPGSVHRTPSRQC
Procedure: as §1

Rat M3 mAChR [3] = target: T1, Rat M3 mAChR; test: [^3H]NMS radioligand competition binding, CHO cell membranes; conditions: rat M3, 0.1 nM [^3H]NMS
Procedure: (§2) Membranes were prepared from CHO cells stably expressing individual rat mAChRs (rM1 to rM5). Briefly, media was removed, cells were washed with PBS and harvested with PBS into a centrifuge bottle. Cells were spun at 2,000 g for 5 minutes at 4 °C. After harvesting, the supernatant was gently discarded and cold membrane preparation buffer [Hanks’ balanced salt solution (HBSS; Invitrogen), 4.17 mM sodium bicarbonate, 20 mM HEPES and 0.5 mM EDTA] was added (10 mL/dish). Cells were then homogenized for 5–10 seconds with a rotary homogenizer (Polytron®) and centrifuged at 20,000g for 20 minutes at 4 °C. The homogenization/centrifugation cycle was repeated twice. After the last centrifugation, the supernatant was gently discarded and the pellet was resuspended in cold membrane preparation buffer (up to 2 mL). All binding reactions were performed in a total volume of 1 mL containing 25 μg of membrane protein. […] The equilibrium binding was terminated by rapid filtration using a 96-well harvester (Brandel®). Filters were washed three times with ice-cold harvesting buffer and were dried overnight. Radioactivity was counted using a TopCount NXT (PerkinElmer®) and counts were normalized to the maximal specific binding in the presence of vehicle. Saturation and competition binding data were analyzed using a weighted nonlinear least-squares interactive curve-fitting program GraphPad Prism (GraphPad Prism Software version 5.0). A mathematical model for one or two binding sites was applied. The equilibrium dissociation constant (KD) and the binding capacity (Bmax) were determined. The inhibition constant (Ki) was determined from competition curves using the Cheng and Prusoff equation[52].

Rat M1 mAChR [4] = target: T2, Rat M1 mAChR; test: as above; conditions: rat M1, 0.1 nM [^3H]NMS
Procedure: as §2

Rat M4 mAChR = target: T3, Rat M4 mAChR (Rattus norvegicus, UniProt P08485); test: as above; conditions: rat M4, 0.1 nM [^3H]NMS
T3 construct: host or cells: CHO (CHO-K1) cells
T3 sequence (P08485 1-478): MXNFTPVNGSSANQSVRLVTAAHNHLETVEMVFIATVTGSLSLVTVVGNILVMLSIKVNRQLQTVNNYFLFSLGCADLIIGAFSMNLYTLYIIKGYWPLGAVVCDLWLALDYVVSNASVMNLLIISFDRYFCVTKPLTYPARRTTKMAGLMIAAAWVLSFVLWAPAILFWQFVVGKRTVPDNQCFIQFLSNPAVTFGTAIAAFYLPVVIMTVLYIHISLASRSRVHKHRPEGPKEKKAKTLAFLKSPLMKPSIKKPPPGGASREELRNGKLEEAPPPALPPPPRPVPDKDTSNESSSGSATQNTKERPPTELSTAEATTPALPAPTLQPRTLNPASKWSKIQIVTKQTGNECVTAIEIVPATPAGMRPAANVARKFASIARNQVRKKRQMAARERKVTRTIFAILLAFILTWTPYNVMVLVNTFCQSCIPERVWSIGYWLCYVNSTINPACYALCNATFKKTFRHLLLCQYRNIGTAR
Procedure: as §2

Rat M2 mAChR = target: T4, Rat M2 mAChR (Rattus norvegicus, UniProt P10980); test: as above; conditions: rat M2, 0.1 nM [^3H]NMS
T4 construct: host or cells: CHO (CHO-K1) cells
T4 sequence (P10980 1-466): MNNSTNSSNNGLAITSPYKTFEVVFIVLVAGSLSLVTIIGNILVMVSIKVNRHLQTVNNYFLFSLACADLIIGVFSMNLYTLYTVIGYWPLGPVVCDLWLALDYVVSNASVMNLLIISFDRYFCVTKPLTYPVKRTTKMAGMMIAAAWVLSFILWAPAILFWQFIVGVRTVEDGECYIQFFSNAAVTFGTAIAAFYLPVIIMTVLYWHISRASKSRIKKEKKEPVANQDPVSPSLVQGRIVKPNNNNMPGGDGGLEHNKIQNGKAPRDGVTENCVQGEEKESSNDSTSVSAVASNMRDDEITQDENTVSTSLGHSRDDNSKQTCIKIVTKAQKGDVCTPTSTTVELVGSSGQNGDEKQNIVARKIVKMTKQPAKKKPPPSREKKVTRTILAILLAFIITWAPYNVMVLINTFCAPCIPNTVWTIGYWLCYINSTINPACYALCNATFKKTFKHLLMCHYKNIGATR
Procedure: as §2

T1 sequence (P08483 whole entry): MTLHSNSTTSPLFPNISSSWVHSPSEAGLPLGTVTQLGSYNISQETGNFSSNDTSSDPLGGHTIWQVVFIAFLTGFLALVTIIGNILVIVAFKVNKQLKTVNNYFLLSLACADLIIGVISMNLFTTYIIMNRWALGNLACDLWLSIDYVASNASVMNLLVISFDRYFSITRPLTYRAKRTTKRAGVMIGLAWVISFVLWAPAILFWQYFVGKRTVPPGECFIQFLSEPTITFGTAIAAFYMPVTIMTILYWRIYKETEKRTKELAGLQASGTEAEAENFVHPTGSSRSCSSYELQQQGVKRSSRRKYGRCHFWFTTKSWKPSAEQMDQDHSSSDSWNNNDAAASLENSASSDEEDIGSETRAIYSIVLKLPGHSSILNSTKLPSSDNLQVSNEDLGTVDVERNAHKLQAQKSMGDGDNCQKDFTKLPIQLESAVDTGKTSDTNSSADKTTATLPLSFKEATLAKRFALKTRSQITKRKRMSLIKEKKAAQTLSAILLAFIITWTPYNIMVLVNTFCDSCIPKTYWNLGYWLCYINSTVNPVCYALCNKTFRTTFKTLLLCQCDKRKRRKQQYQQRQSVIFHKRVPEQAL

`COC(=O)C1=CC[C@@H]2CC[C@H]1N2C` [AEME, anhydroecgonine methyl ester] was tested, and the mechanism of action (Rat M3 mAChR [1]; rat M3) was “partial agonist-activity”, the “% of the maximum acetylcholine response” value (Rat M3 mAChR [1]; rat M3, agonist mode) was 27.2% and the pEC50 (Rat M3 mAChR [1]; rat M3, agonist mode (single-add)) was under 4.00. For the same compound, the mechanism of action (Rat M1 mAChR [2]; rat M1) was “partial agonist-activity”, the “% of the maximum acetylcholine response” value (Rat M1 mAChR [2]; rat M1, agonist mode) was 38.3% and the pEC50 (Rat M1 mAChR [2]; rat M1, agonist mode (single-add)) was under 4.00. For the same compound, the pKi (Rat M3 mAChR [3]) was 4.47, the pKi (Rat M1 mAChR [4]) was 4.59 and the pKi (Rat M4 mAChR) was 4.61. The pKi (Rat M2 mAChR) was 4.71.
